# Experimental data published in US7781565B2 (priority 2006, dated 2010).
# Entries after “also recorded” stand apart in the source; their conditions may differ.
# Tested on: NCI-60 cell lines
# Format: cell-based, human
Substance,Cell Line (NCI-60 cell line the peptide and its motif are associated with),Cell Line (NCI-60 cell line the peptide is associated with),Cell Line with which the peptide (and its tripeptide motif) is associated,Cell Line the peptide is associated with (peptide recovered from phage library selection on this NCI-60 cell line)
GRVRETP,UACC62 Melanoma,–,–,–
SGAGAAF,786-0 Renal,–,–,–
NMGAVGS,DU-145 Prostate,–,–,–
ELWASLG,–,HT-29 Colon,–,–
GRLWWHT,–,–,Hop-92-Lung,–
GGGSWLI,–,–,EKVX-Lung,–
ATIPGGS,–,LOX-IMVI Melanoma,–,–
SLYGLRW,M14 Melanoma,–,–,–
GRGSFES,–,–,SR Leukemia,–
GRVKPGA,DU-145 Prostate,–,–,–
MLASAGR,–,–,HL-60-Leukemia,–
PVGAAVA,UACC62 Melanoma,–,–,–
PFPARSS,–,–,H23-Lung,–
PQGRGVK,–,SNB-75 CNS,–,–
GEVGLGV,–,HT-29 Colon,–,–
DGAGSLR,OVCAR-5 Ovarian,–,–,–
RSWNAGR,–,–,–,UO31 Renal
SRKGLRS,786-0 Renal,–,–,–
WRASPGM,–,–,–,BT-549 Breast
LRGGLVS,–,–,EKVX-Lung,–
GNYGSVL,–,–,Hop-92-Lung,–
RMGLLRQ,M14 Melanoma,–,–,–
AASLRGT,UACC62 Melanoma,–,–,–
VGSVKAS,PC3 Prostate,–,–,–

Substance,Cell Line (NCI-60 cell line the peptide and its motif are associated with),Cell Line (NCI-60 cell line the peptide is associated with),Cell Line with which the peptide (and its tripeptide motif) is associated,Cell Line the peptide is associated with (peptide recovered from phage library selection on this NCI-60 cell line)
YYGERSS,OVCAR-5 Ovarian,–,–,–
PRLGRLL,–,–,–,TK-10 Renal
LLVSLSS,–,–,–,RXF393 Renal
IAASYRG,–,LOX-IMVI Melanoma,–,–
TLGLRVP,–,–,–,TK-10 Renal
WGLVRHA,–,SF-268 CNS,–,–
GGRLRAV,–,SNB-19 CNS; also recorded: SF-539 CNS,–,–
RSYPLRS,–,SW620-Colon,–,–
AGLALTV,–,MALME-3M Melanoma,–,–
LAAGGEL,–,–,RPMI-8226-Leukemia,–
SGVSNPG,–,–,–,MDA-MB-231 Breast
GGGRSGV,–,–,H226-Lung,–
ARAGSTF,A498 Renal,–,–,–
LRSDPRS,–,HT-29 Colon,–,–
AAVWAAD,–,–,HL-60-Leukemia,–
RFTRSSG,–,–,A549-Lung,–
PLLREVG,–,–,–,SN12C Renal
VSRIGVR,–,LOX-IMVI Melanoma,–,–
AVSKRLP,–,–,H522-Lung,–
FSSKRGV,–,–,RPMI-8226-Leukemia,–
FMGAGFA,–,–,HL-60-Leukemia,–
WRASAFT,–,–,SR Leukemia,–
GGVSPVD,–,–,A549-Lung,–
GGRELKA,PC3 Prostate,–,–,–

Substance,Cell Line (NCI-60 cell line the peptide and its motif are associated with),Cell Line (NCI-60 cell line the peptide is associated with),Cell Line with which the peptide (and its tripeptide motif) is associated,Cell Line the peptide is associated with (peptide recovered from phage library selection on this NCI-60 cell line)
WGAGFWM,–,–,H460-Lung,–
QTLSAGG,–,SF-295 CNS,–,–
TLGVLVT,–,–,–,NCI/ADR-RES Breast
DWWAGVR,–,–,CCRF-CEM Leukemia,–
PAGRMLS,SK-MEL-2 Melanoma,–,–,–
LVRDGVL,–,MALME-3M Melanoma,–,–
VLGMRSS,–,–,SR Leukemia,–
LLSPRGT,–,SF-295 CNS,–,–
GALRVPW,–,HCT-15 Colon,–,–
LRLSGHD,–,–,–,NCI/ADR-RES Breast
LRGVYVA,–,–,–,NCI/ADR-RES Breast
GAVRARL,–,–,SR Leukemia,–
VKGSSMR,–,–,–,A498 Renal
RAGGGAP,–,–,–,ACHN Renal
SRVSFHE,–,MALME-3M Melanoma,–,–
AGRGISQ,UACC62 Melanoma,–,–,–
SRAVIRL,OVCAR-5 Ovarian,–,–,–
GSGVRVS,SK-MEL-28 Melanoma,–,–,–
FGIGRGV,SK-MEL-5 Melanoma,–,–,–
DRGLGMS,786-0 Renal,–,–,–
NPGLVWN,–,–,–,MDA-MB-231 Breast
GVLARVT,–,–,CCRF-CEM Leukemia,–
GAVTGYP,–,SF-268 CNS,–,–
GGSALFG,–,HT-29 Colon,–,–

Substance,Cell Line (NCI-60 cell line the peptide and its motif are associated with),Cell Line (NCI-60 cell line the peptide is associated with),Cell Line with which the peptide (and its tripeptide motif) is associated,Cell Line the peptide is associated with (peptide recovered from phage library selection on this NCI-60 cell line)
GGRPVER,–,–,–,UO31 Renal
AVSLAWQ,–,–,–,T-47D Breast
MGPSARW,–,–,–,BT-549 Breast
LRPGLRS,–,–,–,CAIK-1 Renal
LELLSVV,–,SNB-75 CNS,–,–
GRLRPFS,–,–,–,TK-10 Renal
FSGDAVS,–,HT-29 Colon,–,–
QLGGSFR,SK-MEL-28 Melanoma,–,–,–
AASVGVA,–,–,–,MDA-MB-231 Breast
YRALAGG,–,–,–,MDA-MB-435-Breast
WGRGSVA,–,–,Molt-4-Leukemia,–
ARLLRGG,DU-145 Prostate,–,–,–
GAVRSVM,–,–,–,TK-10 Renal
EPDGVRS,–,–,CCRF-CEM Leukemia,–
RLGSSGL,–,–,–,RXF393 Renal
LRGSHVA,–,–,–,ACHN Renal
WTVGGRV,–,–,–,A498 Renal
LGLVFTR,–,–,–,T-47D Breast
AWRHAGG,–,SNB-19 CNS; also recorded: SF-539 CNS,–,–
EGARASD,–,–,Hop-92-Lung,–
ARGSWRE,–,–,–,TK-10 Renal
LQGSGAY,OVCAR-8 Ovarian,–,–,–
